pIC50: −log10 of the molar value.
target: Full length KDM2B (Homo sapiens (Human), UniProt Q8NHM5); test: KDM2B TR-FRET assay for determining inhibitor IC50; format: biochemical; settings: TR-FRET (HTRF), biotin-H3K36me2 peptide substrate, 2-OG 0.3 μM or 6 μM
Source text: KDM2B TR-FRET Assay for Determining Inhibitor IC50
The KDM2B TR-FRET Assay described above represents an additional embodiment of the invention.

Sequence of Full length KDM2B (Q8NHM5 whole entry): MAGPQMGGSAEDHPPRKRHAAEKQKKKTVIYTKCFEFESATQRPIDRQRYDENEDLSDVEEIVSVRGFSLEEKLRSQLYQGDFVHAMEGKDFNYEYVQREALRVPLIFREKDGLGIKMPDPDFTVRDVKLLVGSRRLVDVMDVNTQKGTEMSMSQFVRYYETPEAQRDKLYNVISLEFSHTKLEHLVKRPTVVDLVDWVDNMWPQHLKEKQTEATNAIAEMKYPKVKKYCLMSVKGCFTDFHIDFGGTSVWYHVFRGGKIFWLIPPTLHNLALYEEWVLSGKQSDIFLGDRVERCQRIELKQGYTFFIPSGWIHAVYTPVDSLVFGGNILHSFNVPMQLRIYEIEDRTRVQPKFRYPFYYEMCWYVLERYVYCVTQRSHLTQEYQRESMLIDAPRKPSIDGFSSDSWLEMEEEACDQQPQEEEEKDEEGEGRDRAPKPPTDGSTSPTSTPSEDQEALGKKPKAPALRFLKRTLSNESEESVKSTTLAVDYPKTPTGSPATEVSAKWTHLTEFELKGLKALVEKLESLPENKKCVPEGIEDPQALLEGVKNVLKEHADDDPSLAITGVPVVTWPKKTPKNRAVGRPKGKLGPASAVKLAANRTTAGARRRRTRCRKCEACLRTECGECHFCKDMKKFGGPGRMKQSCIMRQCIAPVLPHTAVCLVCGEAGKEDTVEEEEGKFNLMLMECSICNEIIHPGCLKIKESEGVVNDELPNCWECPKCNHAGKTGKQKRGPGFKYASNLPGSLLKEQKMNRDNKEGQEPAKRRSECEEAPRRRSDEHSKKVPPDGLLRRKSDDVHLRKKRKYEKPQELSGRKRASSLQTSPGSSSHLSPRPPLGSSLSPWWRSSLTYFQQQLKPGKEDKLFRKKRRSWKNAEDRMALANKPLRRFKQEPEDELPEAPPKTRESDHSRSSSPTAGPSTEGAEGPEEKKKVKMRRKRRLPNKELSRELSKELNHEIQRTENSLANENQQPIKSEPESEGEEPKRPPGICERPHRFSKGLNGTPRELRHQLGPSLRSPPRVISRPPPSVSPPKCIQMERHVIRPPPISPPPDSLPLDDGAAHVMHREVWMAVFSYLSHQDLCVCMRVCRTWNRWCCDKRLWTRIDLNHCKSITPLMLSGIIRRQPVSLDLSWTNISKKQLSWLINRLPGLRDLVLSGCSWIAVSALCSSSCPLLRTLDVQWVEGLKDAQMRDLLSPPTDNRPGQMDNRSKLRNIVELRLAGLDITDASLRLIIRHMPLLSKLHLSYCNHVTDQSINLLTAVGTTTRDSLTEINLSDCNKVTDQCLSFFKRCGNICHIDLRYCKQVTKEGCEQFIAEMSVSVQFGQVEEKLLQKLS

Row | Compound | pIC50
1 | COc1ccc(C(=O)C2CCCN(CC3CC3)C2)cc1 (single isomer, unassigned) [Example 110a, (1-(cyclopropylmethyl)piperidin-3-yl)(4-methoxyphenyl)methanone] | 5.70
2 | O=C(c1ccc2ccccc2n1)C1CCCN(CC2CC2)C1 (single isomer, unassigned) [Example 117a, (1-(cyclopropylmethyl)piperidin-3-yl)(quinolin-2-yl)methanone] | 6.45
3 | COc1cccc2cc(C(=O)C3CN(CC4CC4)CCC3C)ccc12 (single isomer, unassigned) [Example 136a, (1-(cyclopropylmethyl)-4-methylpiperidin-3-yl)(5-methoxynaphthalen-2-yl)methanone] | 7.38
4 | COc1cccc2cc(C(=O)[C@@H]3CN(CC4CC4)CC[C@@H]3C)ccc12 (single isomer, unassigned) [Example 136b, (1-(cyclopropylmethyl)-4-methylpiperidin-3-yl)(5-methoxynaphthalen-2-yl)methanone] | 5.92
5 | COc1ccc2cc(C(=O)[C@@H]3CN(CC4CC4)CC[C@H]3C)ccc2c1 (single isomer, unassigned) [Example 137b, (1-(cyclopropylmethyl)-4-methylpiperidin-3-yl)(6-methoxynaphthalen-2-yl)methanone] | 7.03
6 | COc1ccc2cc(C(=O)[C@H]3CN(CC4CC4)CC[C@H]3C)ccc2c1 (single isomer, unassigned) [Example 137c, (1-(cyclopropylmethyl)-4-methylpiperidin-3-yl)(6-methoxynaphthalen-2-yl)methanone] | 5.96
7 | COc1ccc2cc(C(=O)[C@H]3CN(CC4CC4)CC[C@@H]3C)ccc2c1 (single isomer, unassigned) [Example 137d, (1-(cyclopropylmethyl)-4-methylpiperidin-3-yl)(6-methoxynaphthalen-2-yl)methanone] | 5.48
8 | COc1ccc2cc(C(=O)C3CN(CC4CC4)CCC3C(F)(F)F)ccc2c1 (single isomer, unassigned) [Example 138a, (1-(cyclopropylmethyl)-4-(trifluoromethyl)piperidin-3-yl)(6-methoxynaphthalen-2-yl)methanone] | 6.86
9 | COc1ccc2cc(C(=O)C3CN(CC4CC4)CCC3C(F)(F)F)ccc2c1 (single isomer, unassigned) [Example 138b, (1-(cyclopropylmethyl)-4-(trifluoromethyl)piperidin-3-yl)(6-methoxynaphthalen-2-yl)methanone] | 5.32
10 | COc1ccc2cc(C(=O)[C@H]3C[C@@H](C)CN(CC4CC4)C3)ccc2c1 (single isomer, unassigned) [Example 139a, (1-(cyclopropylmethyl)-5-methylpiperidin-3-yl)(6-methoxynaphthalen-2-yl)methanone] | 6.48
11 | CCCC1CCN(C2CCC2)CC1C(=O)c1ccc2cc(OC)ccc2c1 (single isomer, unassigned) [Example 140a, (1-cyclobutyl-4-propylpiperidin-3-yl)(6-methoxynaphthalen-2-yl)methanone] | 6.51
12 | CCC[C@H]1CCN(C2CCC2)C[C@@H]1C(=O)c1ccc2cc(OC)ccc2c1 (single isomer, unassigned) [Example 140b, (1-cyclobutyl-4-propylpiperidin-3-yl)(6-methoxynaphthalen-2-yl)methanone] | 6.48
13 | CCC[C@H]1CCN(C2CCC2)C[C@H]1C(=O)c1ccc2cc(OC)ccc2c1 (single isomer, unassigned) [Example 140c, (1-cyclobutyl-4-propylpiperidin-3-yl)(6-methoxynaphthalen-2-yl)methanone] | 8.26
14 | CCCC1CCN(C2CCC2)CC1C(=O)c1ccc2cc(OC)ccc2c1 (single isomer, unassigned) [Example 140d, (1-cyclobutyl-4-propylpiperidin-3-yl)(6-methoxynaphthalen-2-yl)methanone] | 8.00
15 | COc1ccc2cc(C(=O)[C@@H]3CN(C4CCC4)CC[C@@H]3c3ccccc3)ccc2c1 (single isomer, unassigned) [Example 141a, (1-cyclobutyl-4-phenylpiperidin-3-yl)(6-methoxynaphthalen-2-yl)methanone] | 6.00
16 | COc1ccc2cc(C(=O)C3CN(C4CCC4)CCC3c3ccccc3)ccc2c1 (single isomer, unassigned) [Example 141b, (1-cyclobutyl-4-phenylpiperidin-3-yl)(6-methoxynaphthalen-2-yl)methanone] | 7.01
17 | CC[C@@H]1CCN(C2CCC2)C[C@H]1C(=O)c1ccc2cc(OC)ccc2c1 (single isomer, unassigned) [Example 142a, (1-cyclobutyl-4-ethylpiperidin-3-yl)(6-methoxynaphthalen-2-yl)methanone] | 7.94
18 | CCC1CCN(C2CCC2)CC1C(=O)c1ccc2cc(OC)ccc2c1 (single isomer, unassigned) [Example 142b, (1-cyclobutyl-4-ethylpiperidin-3-yl)(6-methoxynaphthalen-2-yl)methanone] | 6.46
19 | CCC1CCN(C2CCC2)CC1C(=O)c1ccc2cc(OC)ccc2c1 (single isomer, unassigned) [Example 142c, (1-cyclobutyl-4-ethylpiperidin-3-yl)(6-methoxynaphthalen-2-yl)methanone] | 6.68
20 | CCC1CCN(C2CCC2)CC1C(=O)c1ccc2cc(OC)ccc2c1 (single isomer, unassigned) [Example 142d, (1-cyclobutyl-4-ethylpiperidin-3-yl)(6-methoxynaphthalen-2-yl)methanone] | 8.18
21 | COc1ccc2cc(C(=O)[C@@H]3CN(C4CCC4)CC[C@@H]3C(C)C)ccc2c1 (single isomer, unassigned) [Example 143a, (1-cyclobutyl-4-isopropylpiperidin-3-yl)(6-methoxynaphthalen-2-yl)methanone] | 6.20
22 | COc1ccc2cc(C(=O)[C@H]3CN(C4CCC4)CC[C@H]3C(C)C)ccc2c1 (single isomer, unassigned) [Example 143b, (1-cyclobutyl-4-isopropylpiperidin-3-yl)(6-methoxynaphthalen-2-yl)methanone] | 7.80
23 | COc1ccc2cc(C(=O)[C@@H]3CN(C4CCC4)CC[C@@H]3CC(C)C)ccc2c1 (single isomer, unassigned) [Example 144a, (1-cyclobutyl-4-isobutylpiperidin-3-yl)(6-methoxynaphthalen-2-yl)methanone] | 8.25
24 | COc1ccc2cc(C(=O)C3CN(C4CCC4)CCC3CC(C)C)ccc2c1 (single isomer, unassigned) [Example 144b, (1-cyclobutyl-4-isobutylpiperidin-3-yl)(6-methoxynaphthalen-2-yl)methanone] | 6.57
25 | COc1ccc2cc(C(=O)C3CN(CC4CC4)CCC3OC)ccc2c1 (single isomer, unassigned) [Example 146a, (1-(cyclopropylmethyl)-4-methoxypiperidin-3-yl)(6-methoxynaphthalen-2-yl)methanone] | 6.42
26 | COc1ccc2cc(C(=O)C3CN(CC4CC4)CCC3OC)ccc2c1 (single isomer, unassigned) [Example 146b, (1-(cyclopropylmethyl)-4-methoxypiperidin-3-yl)(6-methoxynaphthalen-2-yl)methanone] | 6.89
27 | CCC1CCN(C2CC2)CC1C(=O)c1ccc2cc(OC)ccc2c1 (single isomer, unassigned) [Example 147a, (1-cyclopropyl-4-ethylpiperidin-3-yl)(6-methoxynaphthalen-2-yl)methanone] | 5.70

— US10280149B2, “Therapeutic compounds and uses thereof” (GENENTECH, INC., priority 2015, dated 2019)
